From the supplement of paper PMC4862054

How the values were obtained:
Assay in all cases: normalised viability (% of control), CellTiter-Blue; higher = more viable cells (about 100 = DMSO control)
MDA-MB-468 = conditions: 100 nM; incubation time: 72 h
Experimental: (§1)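 DSRT, CellTiter-Blue viability, 72 h incubation. Signal is normalised to DMSO and benzethonium chloride controls. Value is the normalised response at dose 3.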

DU-4475 = conditions: 10 nM; incubation time: 72 h
Experimental: as §1

CAL-120 = conditions: 100 nM; incubation time: 72 h
Experimental: as §1

MDA-MB-436 = conditions: 100 nM; incubation time: 72 h
Experimental: as §1

CAL-85-1 = conditions: 10 nM; incubation time: 72 h
Experimental: as §1

BT-474 = conditions: 100 nM; incubation time: 72 h
Experimental: as §1

MDA-MB-231 = conditions: 100 nM; incubation time: 72 h
Experimental: as §1

HDQ-P1 = conditions: 10 nM; incubation time: 72 h
Experimental: as §1

HCC1599 = conditions: 100 nM; incubation time: 72 h
Experimental: as §1

HCC1937 = conditions: 100 nM; incubation time: 72 h
Experimental: as §1

Hs578T = conditions: 100 nM; incubation time: 72 h
Experimental: as §1

HCC1143 = conditions: 100 nM; incubation time: 72 h
Experimental: as §1

SK-BR-3 = conditions: 100 nM; incubation time: 72 h
Experimental: as §1

CAL-51 = conditions: 10 nM; incubation time: 72 h
Experimental: as §1

## Oc1nc(-c2ccc(C(F)(F)F)cc2)nc2c1CSCC2 [XAV-939]
MDA-MB-468
  normalised viability: 107%
DU-4475
  normalised viability: 111%
CAL-120
  normalised viability: 97.2%
MDA-MB-436
  normalised viability: 128%
CAL-85-1
  normalised viability: 96.3%
BT-474
  normalised viability: 107%
MDA-MB-231
  normalised viability: 89.1%
HDQ-P1
  normalised viability: 104%
HCC1599
  normalised viability: 116%
HCC1937
  normalised viability: 101%
Hs578T
  normalised viability: 88.3%
HCC1143
  normalised viability: 77.6%
SK-BR-3
  normalised viability: 112%
CAL-51
  normalised viability: 98.8%
